Measured values: patent publication US20210040134A1, “COMBINATIONS OF MACROLIDE COMPOUNDS AND IMMUNE CHECKPOINT INHIBITORS” (ISR IMMUNE SYSTEM REGULATION HOLDING AB (PUBL), priority 2018, published 2021)

Tests used:
[1] = system: peripheral blood mononuclear cells (PBMC); test: Marker expression on stimulated PBMC by flow cytometry; format: cell-based, human; conditions: 24 h
Description: Human peripheral blood mononuclear cells (PBMCs) were purified from healthy donors with Ficoll-Paque density centrifugation. Cells were cultured in complete RPMI-1640 media (Invitrogen) supplemented with 25 mM HEPES, L-glutamine, Sodium pyruvate (Sigma), 10% fetal bovine serum, 100 μg/mL penicillin and 100 μg/mL streptomycin (Hyclone) for 24-72 hours in 37° C., 5% CO2 and stimulated with and increasing concentrations of compound 1 and 2. Cells were then washed in PBS and stained with monoclonal antibodies specific for cell surface markers (BD Pharmingen) and analysed with flow cytomtetry using a BD FACS Canto II flow cytometer. All samples were tested in duplicates.
Human peripheral blood mononuclear cells (PBMCs) were purified from healthy donors with Ficoll-Paque density centrifugation. Cells were cultured in complete RPMI-1640 medium (Invitrogen) supplemented with 25 mM HEPES, L-glutamine, Sodium pyruvate (Sigma), 10% fetal bovine serum, 100 μg/mL penicillin and 100 μg/mL streptomycin (Hyclone). […] The cells were removed from the plate, washed in PBS and analysed for expression of cell specific surface markers and MHC class I with flow cytomtery using monoclonal antibodies from BD Pharmingen and a FACS Canto II flow cytometer.

Caco-2 cell monolayers = test: Caco-2 bidirectional permeability assay; format: in vitro ADME; conditions: Caco-2, 10 μM test article, 90 minutes
Description: (§1) 10 μM Test article was added to the apical (A) surface of Caco-2 cell monolayers (in HBSS buffer with 0.3% DMSO and 5 μM LY at 37 degrees C.) and compound permeation into the basolateral (B) compartment measured following 90 minutes incubation. This was also performed in the reverse direction (basolateral to apical) to investigate active transport. LC-MS/MS is used to quantify levels of both the test and standard control compounds. Efflux ratio was calculated by dividing the B to A permeability by the A to B permeability.
(§2) Drug permeability:Papp=(VA/(Area×time))×([drug]accepter/(([drug]initial,donor)×Dilution Factor)
(§3) The permeability of the compounds of the invention was assessed in a standard caco-2 bidirectional permeability assay (see general methods).

[2] = Caco-2 bidirectional permeability assay; format: in vitro ADME; conditions: human, Caco-2; B to A permeability divided by A to B permeability
Description: as §1, §2, §3

CC[C@H]1OC(=O)[C@H](C)[C@@H](O[C@H]2C[C@@H](N(C)C)[C@H](O)[C@@H](C)O2)[C@H](C)[C@@H](O)[C@](C)(O)C[C@@H](C)CN(C)[C@H](C)[C@@H](O)[C@]1(C)O [Compound 1]
activation marker CD69 on CD4+ T cells and B cells ([1]; 1 μM): upregulated
MHC class I molecule (HLA-ABC) on T- and B-cells [1]: upregulation
Papp (Caco-2 cell monolayers): 0.32 × 10^6/cm · s^−1
efflux ratio at 90 minutes, 10 μM [2]: 63
